Test results taken from patent US9266903B2, “Polymorphs of 2-(4-(2-(1-isopropyl-3-methyl-1H-1,2,4-triazole-5-yl)-5,6-dihydrobenzo[F]imidazo [1,2-D][1,4]oxazepin-9-yl)-1H-pyrazol-1-yl)-2-methylpropanamide, methods of production, and pharmaceutical uses thereof” (Genentech, Inc., priority 2013, dated 2016).
In brackets after ≈: the same amount, converted by molar mass.

Tests used:
[1] = Stability of solvate/hydrate forms in the absence of solvent or at low humidity; assay type: physicochemical
[2] = Slurry in water (conversion to hydrate); assay type: physicochemical
[3] = Slurry interconversion experiments in pure isoamyl alcohol; assay type: physicochemical; details: Form B versus Form C in pure isoamyl alcohol
Experimental: Form C was derived only from isoamyl alcohol and was initially formed at 5° C. It is crystalline by XRPD (FIG. 13) and PLM. […] This weight loss was divided into two broad steps: a 5.2% weight loss was observed from ambient to 105° C. and an additional 9.8% weight loss was observed from 105-125° C. (bp of isoamyl alcohol: 130° C.). The theoretical weight loss for a mono-solvate is 16.1% and 8.7% for a hemi-solvate. The crystal structure of Form C was solved. Form C is the mono-isoamyl alcoholate. […] The solvate, Form C, was favored at temperatures of 15° C. or below.

[4] = Dynamic vapor sorption (DVS); assay type: physicochemical; details: for weight gain in DVS / dynamic moisture sorption experiment: at 95% RH
Experimental: Automated vapor sorption data were collected on a TA Instruments Q5000SA vapor sorption analyzer. NaCl and PVP were used as calibration standards. Samples were not dried prior to analysis. Adsorption and desorption data were collected at 25° C. over a range from 5 to 95% RH at 10% RH increments under a nitrogen purge. Samples were held at the corresponding RH for 1 hour prior to moving to the next RH range. Data were not corrected for the initial moisture content of the samples.

[5] = Solid-state physical form stability (accelerated 40° C./75% RH, high humidity, API stability studies); assay type: physicochemical
[6] = Isothermal TGA dehydration; assay type: physicochemical
Experimental: Weight change as a function of temperature was determined by TGA. […] 0.1-2 milligrams of the sample were placed in a DSC pan located on the sample holder. The sample holder was heated in the TGA from 25 to 300° C. at a heating rate of 10° C. min^−1. Dry N2 gas was used for purging. Isothermal experiments were conducted by heating the sample at 10° C./min to the desired temperature and then holding the sample at that temperature for at least 200 minutes.

[7] = Solubility in solvents/solvent mixtures at two temperatures (visual dissolution, HPLC for suspensions); assay type: physicochemical
Experimental: The solubility of GDC-0032 was determined in various solvents/solvent mixtures at two different temperatures: Ethanol absolute, Methanol, Isopropanol, Acetone, Ethyl Acetate, Isopropyl acetate, Tetrahydrofuran, 2-Butanone, Methanol/Water (50/50), 2,2,2-Trifluoroethanol (TFE), 2-Butanone, TFE/Ethyl acetate (50/50), TFE/Acetone (50/50), TFE/Water (50/50), Acetonitrile, Acetonitrile/water (50/50), Acetone/water (50/50), Tert-butyl methyl ether, n-Heptane, Ethanol/Ethyl acetate (50/50), Ethanol/Acetone (50/50), Methanol/water (90/10), Ethanol/Acetonitrile (50/50).
For each experiment, approximately 5-10 mg of material was weighed in 40 mL vials. […] In each vial, the solvent was added to the solid in steps of 50 μL until dissolution or until a minimum concentration of 0.2 mg/mL was reached. Dissolution was assessed visually at two temperatures, room temperature (RT) and a higher temperature (Tmax=50 or 70° C., selected such that the boiling point of the solvent was higher than Tmax). Solubility was measured by HPLC for suspensions.

[8] = system: PI3K; details: cited from earlier work
[9] = pKa and log P by potentiometric titration; assay type: physicochemical
Experimental: GDC-0032 API is a white to off-white solid. It is crystalline as confirmed by the sharp peaks of its XRPD pattern and has a melting point of 258° C. Several physical forms of GDC-0032 free base, including an anhydrous form (Form B), several hydrates, and several solvates, have been identified to date. Form B has a melting point range of 256° C. to 258° C. Form B has been produced consistently in the API process to date. […] The reproducibility and stability of the crystalline form will be monitored during API synthesis and stability. GDC-0032 is non-hygroscopic, with less than 0.2% weight gain at 95% RH in the dynamic moisture sorption experiment.

[10] = Solubility of GDC-0032 in methanol at high temperature; assay type: physicochemical; details: approximately 15 mg in 500 mL methanol, 24 hours equilibration
Experimental: Solubility of GDC-0032 in methanol at high temperature: Solubility of GDC-0032 in methanol at 45° C. and 55° C. was measured. Two slurries were prepared with approximately 15 mg of starting material and 500 mL of methanol. The slurries were subsequently placed in two ovens, at 45° C. and 55° C. each. After 24 hours of equilibration the two slurries were visually checked. In both cases the dissolution was not complete. The solids were separated from the mother liquor and were harvested both wet and dried for XRPD and digital imaging. The mother liquor was evaporated and the solids were also analyzed by XRPD and digital imaging.

[11] = Solubility assessment as a function of pH and in different buffers and formulation vehicles; assay type: physicochemical
Source text: The solubility behavior of GDC-0032 API is summarized as a Function of pH and in Different Buffers and Formulation Vehicles

Q: Which “stability in the absence of the solvate solvent” value (“stability in the absence” for short) [1] does the source give for `C1COCCO1.Cc1nc(-c2cn3c(n2)-c2ccc(-c4cnn(C(C)(C)C(N)=O)c4)cc2OCC3)n(C(C)C)n1.Cc1nc(-c2cn3c(n2)-c2ccc(-c4cnn(C(C)(C)C(N)=O)c4)cc2OCC3)n(C(C)C)n1` [Form AA] here?
A: not stable

Q: For `C1CCOC1.Cc1nc(-c2cn3c(n2)-c2ccc(-c4cnn(C(C)(C)C(N)=O)c4)cc2OCC3)n(C(C)C)n1` [Form AC], which “stability in the absence” value [1] is on record?
A: not stable

Q: For `CO.Cc1nc(-c2cn3c(n2)-c2ccc(-c4cnn(C(C)(C)C(N)=O)c4)cc2OCC3)n(C(C)C)n1` [Form A], which “form obtained on slurrying in the presence of water” value ([2]; 50° C.) is on record?
A: Form D

Q: And the “form obtained from water slurry experiment” value ([2]; room temperature, after drying)?
A: mixture of Form A and Form D

Q: With `Cc1nc(-c2cn3c(n2)-c2ccc(-c4cnn(C(C)(C)C(N)=O)c4)cc2OCC3)n(C(C)C)n1` [Form B] as the compound, how does the “temperature at which the form is preferred/favored in slurry interconversion” value [3] read?
A: ≥ 20 °C

Q: And the “physical form after the DVS experiment” value [4]?
A: still Form B

Q: What about the “weight gain in DVS / dynamic moisture sorption experiment” value [4] of the same compound?
A: less than 0.3%

Q: And the “conversion on slurrying in water” value ([2]; water, with and without Tween 80)?
A: no conversion to the hydrate

Q: And the “physical form after accelerated stability tests” value ([5]; 40° C. and 75% RH)?
A: unchanged

Q: What about the “form change when exposed to high humidity” value ([5]; high humidity for at least 6 months) of the same compound?
A: does not exhibit any form change

Q: Which “temperature at which the form is preferred/favored in slurry interconversion” value [3] does the source give for `CC(C)CCO.Cc1nc(-c2cn3c(n2)-c2ccc(-c4cnn(C(C)(C)C(N)=O)c4)cc2OCC3)n(C(C)C)n1` [Form C] here?
A: ≤ 15 °C

Q: For `Cc1nc(-c2cn3c(n2)-c2ccc(-c4cnn(C(C)(C)C(N)=O)c4)cc2OCC3)n(C(C)C)n1.O` [Form D], which “time to complete dehydration on the TGA” value ([6]; isothermal at 60° C.) is on record?
A: ≤ 40 min

Q: What about the “time to complete dehydration on the TGA” value ([6]; isothermal at 100° C.) of the same compound?
A: ≤ 15 min

Q: Which “humidity at which Form X reversibly converts to Form Y” value ([1]; at 20° C.) does the source give for `Cc1nc(-c2cn3c(n2)-c2ccc(-c4cnn(C(C)(C)C(N)=O)c4)cc2OCC3)n(C(C)C)n1.O` [Form X] here?
A: 10-20 % RH

Q: For `CC(C)C(=O)C(C)C.Cc1nc(-c2cn3c(n2)-c2ccc(-c4cnn(C(C)(C)C(N)=O)c4)cc2OCC3)n(C(C)C)n1` [Form Z], which “stability in the absence” value [1] is on record?
A: converts to Form B

Q: With `Cc1nc(-c2cn3c(n2)-c2ccc(-c4cnn(C(C)(C)C(N)=O)c4)cc2OCC3)n(C(C)C)n1` [GDC-0032, 2-(4-(2-(1-isopropyl-3-methyl-1H-1,2,4-triazol-5-yl)-5,6-dihydrobenzo[f]imidazo[1,2-d][1,4]oxazepin-9-yl)-1H-pyrazol-1-yl)-2-methylpropanamide] as the compound, how does the “solubility in 2,2,2-trifluoroethanol (TFE)” value [7] read?
A: high solubility

Q: And the “solubility in various solvents/solvent mixtures” value ([7]; 23 listed solvents/mixtures, RT and Tmax 50 or 70° C.)?
A: soluble in all except for Ethyl Acetate, Isopropyl acetate, Tetrahydrofuran, Tert-butyl methyl ether, and n-Heptane

Q: What about the PI3K activity [8] of the same compound?
A: potent

Q: What about the “weight gain in DVS / dynamic moisture sorption experiment” value [4] of the same compound?
A: less than 0.2%

Q: What about the logP [9] of the same compound?
A: 2.5

Q: And the pKa ([9]; weak base)?
A: 3.19

Q: And the dissolution in methanol ([10]; 45° C.)?
A: not complete

Q: And the dissolution in methanol ([10]; 55° C.)?
A: not complete

Q: What about the solubility ([11]; FaSSIF, pH 6.8, at 37° C.) of the same compound?
A: 22 µg/mL (≈ 47.8 µM)

Q: And the solubility ([11]; FeSSIF, pH 5.0, at 37° C.)?
A: 270 µg/mL (≈ 586 µM)

Q: What about the solubility ([11]; aqueous buffer, 50 mM phosphate buffer, pH 6.5, at room temperature) of the same compound?
A: 0.72 µg/mL (≈ 1.56 µM)

Q: What about the solubility ([11]; simulated gastric fluid, 0.1N HCl, pH 1.1, at room temperature) of the same compound?
A: 54 µg/mL (≈ 117 µM)

Q: What about the solubility ([11]; water) of the same compound?
A: 1.5 µg/mL (≈ 3.26 µM)

Q: And the “physical form conversion in ongoing stability studies for the API” value [5]?
A: no physical form conversion
